This note sets out measurements from US10077261B2, “Imidazolin-5-one derivative useful as FASN inhibitors for the treatment of cancer” (Janssen Pharmaceutica NV, priority 2012, dated 2018).

For this assay, the target named is T1, hFASN enzyme (full length) (Homo sapiens, UniProt P49327).
T1 construct: 10 μL hFASN enzyme (full length, 300 ng, purified in house); made in house
Put plainly: Fatty Acid Synthase (FASN) inhibition scintillation proximity assay. The assay is classed as biochemical. Conditions: for inhibition at 10 µM: read-out: Human FASN % inhibition @ 10 μM, 10 μM test compound; for IC50: read-out: Human FASN pIC50 (converted). The method in brief:
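Purified full-length hFASN (300 ng) converts ^3H-acetyl-CoA plus malonyl-CoA to ^3H-palmitate in 100 mM KH2PO4 pH 7.5, 1 mM DTT; compounds tested at 0.01–30 μM. Product captured on streptavidin imaging beads and read by LEADseeker at 610 nm after ≥24 h; 4-parameter logistic fit versus controls.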
On the technique in general: SPA uses beads or plates that emit light when radiolabelled molecules are held near them.

Each structure is given as a SMILES string. Bounds are passed on as bounds.

T1 sequence (P49327 whole entry): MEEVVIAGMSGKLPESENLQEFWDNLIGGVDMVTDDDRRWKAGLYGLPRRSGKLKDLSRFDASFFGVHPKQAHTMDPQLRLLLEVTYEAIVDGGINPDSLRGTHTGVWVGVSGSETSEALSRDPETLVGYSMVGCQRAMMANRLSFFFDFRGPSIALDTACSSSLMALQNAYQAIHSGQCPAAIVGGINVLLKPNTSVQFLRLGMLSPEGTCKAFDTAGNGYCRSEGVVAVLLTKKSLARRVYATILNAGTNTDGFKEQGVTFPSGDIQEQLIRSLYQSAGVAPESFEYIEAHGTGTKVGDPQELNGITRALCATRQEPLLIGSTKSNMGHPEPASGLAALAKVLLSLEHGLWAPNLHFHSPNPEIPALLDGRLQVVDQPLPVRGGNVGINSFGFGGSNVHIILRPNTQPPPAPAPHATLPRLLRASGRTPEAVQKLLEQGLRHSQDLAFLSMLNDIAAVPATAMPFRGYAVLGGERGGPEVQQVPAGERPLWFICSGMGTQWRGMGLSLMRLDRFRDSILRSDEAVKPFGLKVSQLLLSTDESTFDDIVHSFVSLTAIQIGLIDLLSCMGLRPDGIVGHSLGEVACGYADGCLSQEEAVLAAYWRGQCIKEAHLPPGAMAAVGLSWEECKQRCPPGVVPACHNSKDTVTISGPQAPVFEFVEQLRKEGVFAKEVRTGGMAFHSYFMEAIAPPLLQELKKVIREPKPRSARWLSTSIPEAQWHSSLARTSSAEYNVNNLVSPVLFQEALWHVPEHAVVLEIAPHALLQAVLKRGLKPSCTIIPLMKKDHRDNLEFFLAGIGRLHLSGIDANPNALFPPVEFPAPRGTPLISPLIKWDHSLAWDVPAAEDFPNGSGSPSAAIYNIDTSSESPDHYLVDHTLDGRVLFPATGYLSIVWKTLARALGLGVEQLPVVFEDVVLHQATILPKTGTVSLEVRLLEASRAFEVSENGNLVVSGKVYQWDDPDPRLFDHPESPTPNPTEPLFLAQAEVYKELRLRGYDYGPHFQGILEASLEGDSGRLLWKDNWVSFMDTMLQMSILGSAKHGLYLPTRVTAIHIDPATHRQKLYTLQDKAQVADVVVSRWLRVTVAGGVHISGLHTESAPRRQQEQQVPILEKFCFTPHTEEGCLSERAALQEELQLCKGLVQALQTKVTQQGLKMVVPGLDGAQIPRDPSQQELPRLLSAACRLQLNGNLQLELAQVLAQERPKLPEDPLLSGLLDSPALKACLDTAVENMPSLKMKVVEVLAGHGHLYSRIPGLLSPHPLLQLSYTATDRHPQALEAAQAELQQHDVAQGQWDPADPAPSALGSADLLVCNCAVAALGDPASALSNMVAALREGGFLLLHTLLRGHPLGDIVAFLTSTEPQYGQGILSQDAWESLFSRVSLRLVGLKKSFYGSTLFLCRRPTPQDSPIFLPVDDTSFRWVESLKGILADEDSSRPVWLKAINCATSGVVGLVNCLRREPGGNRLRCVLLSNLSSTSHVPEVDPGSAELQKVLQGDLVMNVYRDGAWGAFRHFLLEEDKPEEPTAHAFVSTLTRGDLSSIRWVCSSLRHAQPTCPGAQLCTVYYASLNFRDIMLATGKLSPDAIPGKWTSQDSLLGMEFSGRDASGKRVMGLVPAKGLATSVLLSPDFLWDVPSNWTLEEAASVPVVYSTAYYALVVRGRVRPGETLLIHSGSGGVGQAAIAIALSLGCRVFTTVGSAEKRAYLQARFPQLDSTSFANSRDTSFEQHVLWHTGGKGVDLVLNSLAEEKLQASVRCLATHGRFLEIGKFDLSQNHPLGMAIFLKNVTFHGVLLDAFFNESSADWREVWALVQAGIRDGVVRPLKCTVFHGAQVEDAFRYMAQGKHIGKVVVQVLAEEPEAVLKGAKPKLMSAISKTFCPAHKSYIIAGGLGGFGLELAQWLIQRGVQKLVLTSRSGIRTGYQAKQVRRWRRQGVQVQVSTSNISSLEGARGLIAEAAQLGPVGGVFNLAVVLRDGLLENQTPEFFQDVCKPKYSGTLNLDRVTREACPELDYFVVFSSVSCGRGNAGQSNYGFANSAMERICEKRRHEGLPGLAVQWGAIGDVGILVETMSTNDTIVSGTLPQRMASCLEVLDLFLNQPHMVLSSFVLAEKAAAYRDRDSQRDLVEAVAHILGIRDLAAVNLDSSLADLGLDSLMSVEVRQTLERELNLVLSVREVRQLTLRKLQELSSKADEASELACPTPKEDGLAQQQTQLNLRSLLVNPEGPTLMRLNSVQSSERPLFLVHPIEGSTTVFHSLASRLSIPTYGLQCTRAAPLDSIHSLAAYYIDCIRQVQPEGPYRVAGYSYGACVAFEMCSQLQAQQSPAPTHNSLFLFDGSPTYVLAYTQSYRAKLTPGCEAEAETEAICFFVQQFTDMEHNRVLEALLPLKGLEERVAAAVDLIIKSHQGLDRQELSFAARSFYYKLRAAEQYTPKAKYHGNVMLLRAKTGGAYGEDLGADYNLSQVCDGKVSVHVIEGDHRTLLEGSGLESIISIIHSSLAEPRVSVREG

As for `Cc1sc2ccc(-c3ccc(C4=NC5(CCN(C(C)C)CC5)C(=O)N4C[C@@H]4CCN(C(=O)C5CC5)C4)cc3)cc2c1C` [compound 184, 3-{[(3R)-1-(Cyclopropylcarbonyl)pyrrolidin-3-yl]methyl}-2-[4-(2,3-dimethyl-1-benzothiophen-5-yl)phenyl]-8-(1-methylethyl)-1,3,8-triazaspiro[4.5]dec-1-en-4-one], the inhibition at 10 µM turned out to be 107% and the IC50 is 437 nM.

With `Cc1cc2cc(-c3ccc(C4=NC5(CCN(C(C)C)CC5)C(=O)N4C[C@@H]4CCN(C(=O)C5CC5)C4)cc3)ccc2o1` [compound 186, 3-{[(3R)-1-(Cyclopropylcarbonyl)pyrrolidin-3-yl]methyl}-2-[4-(2-methyl-1-benzofuran-5-yl)phenyl]-8-(1-methylethyl)-1,3,8-triazaspiro[4.5]dec-1-en-4-one], the inhibition at 10 µM came out at 80.4% and the IC50 was 1550 nM.

For the compound `CC(C)N1CCC2(CC1)N=C(c1ccc(-c3ccc4[nH]ccc4c3)cc1)N(CC1CN(C(=O)C3CC3)C1)C2=O` [compound 187, 3-{[1-(Cyclopropylcarbonyl)azetidin-3-yl]methyl}-2-[4-(1H-indol-5-yl)phenyl]-8-(1-methylethyl)-1,3,8-triazaspiro[4.5]dec-1-en-4-one], the inhibition at 10 µM was determined as 96.5% and the IC50 is 603 nM.

In the case of `CC(C)N1CCC2(CC1)N=C(c1ccc(-c3ccc4[nH]ncc4c3)cc1)N(CC1CN(C(=O)C3CC3)C1)C2=O` [compound 188, 3-{[1-(Cyclopropylcarbonyl)azetidin-3-yl]methyl}-2-[4-(1H-indazol-5-yl)phenyl]-8-(1-methylethyl)-1,3,8-triazaspiro[4.5]dec-1-en-4-one], the inhibition at 10 µM stood at 50.4% and the IC50 is around 10000 nM.

For `O=C1N(C[C@@H]2CCN(S(=O)(=O)N3CCCC3)C2)C(c2ccc(-c3ccc4occc4c3)cc2)=NC12CCCC2` [compound 189, 2-[4-(1-Benzofuran-5-yl)phenyl]-3-{[(3S)-1-(pyrrolidin-1-ylsulfonyl)pyrrolidin-3-yl]methyl}-1,3-diazaspiro[4.4]non-1-en-4-one], the inhibition at 10 µM is 16.7% and the IC50 was above 10000 nM.

On to `O=C([C@@H]1CCCO1)N1CC[C@@H](CN2C(=O)C3(CCCC3)N=C2c2ccc(-c3ccc4occc4c3)cc2)C1` [compound 190, 2-(4-(Benzofuran-5-yl)phenyl)-3-(((R)-1-((S)-tetrahydro-furan-2-carbonyl)pyrrolidin-3-yl)methyl)-1,3-diazaspiro[4.4]non-1-en-4-one], for which the inhibition at 10 µM is 105% and the IC50 was 295 nM.

For the compound `O=C([C@H]1CCCO1)N1CC[C@@H](CN2C(=O)C3(CCCC3)N=C2c2ccc(-c3ccc4occc4c3)cc2)C1` [compound 191, 2-[4-(1-Benzofuran-5-yl)phenyl]-3-({(3R)-1-[(2R)-tetrahydro-furan-2-ylcarbonyl]pyrrolidin-3-yl}methyl)-1,3-diazaspiro[4.4]non-1-en-4-one], the inhibition at 10 µM was found to be 108% and the IC50 was 79.4 nM.

As for `N#CC1(C(=O)N2CC[C@@H](CN3C(=O)C4(CCCC4)N=C3c3ccc(-c4ccc5occc5c4)cc3)C2)CC1` [compound 192, 1-{[(3R)-3-({2-[4-(1-Benzofuran-5-yl)phenyl]-4-oxo-1,3-diazaspiro[4.4]non-1-en-3-yl}methyl)pyrrolidin-1-yl]carbonyl}cyclopropancarbonitrile], the inhibition at 10 µM turned out to be 94.3% and the IC50 was 589 nM.

With `O=C(C1CC1)N1CCC[C@@H](CN2C(=O)C3(CC3)N=C2c2ccc(-c3ccc4[nH]ncc4c3)cc2)C1` [compound 389, 6-{[(3R)-1-(Cyclopropylcarbonyl)piperidin-3-yl]methyl}-5-[4-(1H-indazol-5-yl)phenyl]-4,6-diazaspiro[2.4]hept-4-en-7-one], the inhibition at 10 µM worked out at 56% and the IC50 is 7240 nM.

With `Cc1cc(C2=NC3(CC3)C(=O)N2CC2CN(C(=O)C3CC3)C2)ccc1-c1ccc2occc2c1` [compound 393, 5-[4-(1-Benzofuran-5-yl)-3-methylphenyl]-6-{[1-(cyclopropylcarbonyl)azetidin-3-yl]methyl}-4,6-diazaspiro[2.4]hept-4-en-7-one], the inhibition at 10 µM came out at 62% and the IC50 was around 2880 nM.

On to `O=C(C1CC1)N1CCC[C@@H](CN2C(=O)C3(CC3)N=C2c2ccc(-c3ccc4sccc4c3)cc2)C1` [compound 394, 5-[4-(1-Benzothiophen-5-yl)phenyl]-6-{[(3R)-1-(cyclopropylcarbonyl)piperidin-3-yl]methyl}-4,6-diazaspiro[2.4]hept-4-en-7-one], for which the inhibition at 10 µM stood at 84% and the IC50 is 1070 nM.

As to `O=C(C1CC1)N1CCC[C@@H](CN2C(=O)C3(CC3)N=C2c2ccc(-c3ccc4occc4c3)cc2)C1` [compound 395, 5-[4-(1-Benzofuran-5-yl)phenyl]-6-{[(3R)-1-(cyclopropylcarbonyl)piperidin-3-yl]methyl}-4,6-diazaspiro[2.4]hept-4-en-7-one], the inhibition at 10 µM stood at 54% and the IC50 was 6310 nM.

For `COC(=O)c1cccc(-c2ccc(C3=NC4(CC4)C(=O)N3C[C@@H]3CCN(C(=O)C4CC4)C3)cc2)c1` [compound 401, Methyl 4′-(6-{[(3R)-1-(cyclopropylcarbonyl)pyrrolidin-3-yl]methyl}-7-oxo-4,6-diazaspiro[2.4]hept-4-en-5-yl)biphenyl-3-carboxylate], the inhibition at 10 µM worked out at 70% and the IC50 was 3720 nM.

Consider `Cn1nccc1-c1ccc(-c2ccc(C3=NC4(CC4)C(=O)N3C[C@@H]3CCN(C(=O)C4CC4)C3)cc2)cc1` [compound 407, 6-{[(3R)-1-(Cyclopropylcarbonyl)pyrrolidin-3-yl]methyl}-5-[4′-(1-methyl-1H-pyrazol-5-yl)biphenyl-4-yl]-4,6-diazaspiro[2.4]hept-4-en-7-one], for which the inhibition at 10 µM was 69% and the IC50 was 2340 nM.

As to `O=C(C1CC1)N1CC[C@H](CN2C(=O)C3(CC3)N=C2c2ccc(-c3ccc(O)cc3)cc2)C1` [compound 408, 6-{[(3S)-1-(Cyclopropylcarbonyl)pyrrolidin-3-yl]methyl}-5-(4′-hydroxybiphenyl-4-yl)-4,6-diazaspiro[2.4]hept-4-en-7-one], the inhibition at 10 µM came out at 63% and the IC50 was 5130 nM.

With `O=C(C1CC1)N1CC(CN2C(=O)C3(CC3)N=C2c2ccc(-c3ccc4occc4c3)c(F)c2)C1` [compound 415], the inhibition at 10 µM came to 80% and the IC50 was 1260 nM.

With `Cc1cc2cc(-c3ccc(C4=NC5(CC5)C(=O)N4CC4CN(C(=O)C5CC5)C4)cc3F)ccc2o1` [compound 416, 6-{[1-(Cyclopropylcarbonyl)azetidin-3-yl]methyl}-5-[3-fluoro-4-(2-methyl-1-benzofuran-5-yl)phenyl]-4,6-diazaspiro[2.4]hept-4-en-7-one], the inhibition at 10 µM was found to be 76% and the IC50 is around 1780 nM.

`Cc1oc2ccc(-c3ccc(C4=NC5(CC5)C(=O)N4CC4CN(C(=O)C5CC5)C4)cc3F)cc2c1C` [compound 417, 6-{[1-(Cyclopropylcarbonyl)azetidin-3-yl]methyl}-5-[4-(2,3-dimethyl-1-benzofuran-5-yl)-3-fluorophenyl]-4,6-diazaspiro[2.4]hept-4-en-7-one]: the inhibition at 10 µM was 62% and the IC50 was 5250 nM.

For the compound `O=C(C1CC1)N1CC[C@@H](CN2C(=O)C3(CC3)N=C2c2ccc(-c3ccc4occc4c3)s2)C1` [compound 422, 5-[5-(1-Benzofuran-5-yl)thiophen-2-yl]-6-{[(3R)-1-(cyclopropylcarbonyl)pyrrolidin-3-yl]methyl}-4,6-diazaspiro[2.4]hept-4-en-7-one], the inhibition at 10 µM was 70% and the IC50 was 3310 nM.

`O=C(C1CC1)N1CC[C@@H](CN2C(=O)C3(CC3)N=C2c2ccc(-c3ccc4[nH]ncc4c3)s2)C1` [compound 424, 6-{[(3R)-1-(Cyclopropylcarbonyl)pyrrolidin-3-yl]methyl}-5-[5-(1H-indazol-5-yl)thiophen-2-yl]-4,6-diazaspiro[2.4]hept-4-en-7-one]: the inhibition at 10 µM was 68% and the IC50 is 3980 nM.

For the compound `Cn1ncc2cc(-c3ccc(C4=NC5(CC5)C(=O)N4C[C@@H]4CCN(C(=O)C5CC5)C4)s3)ccc21` [compound 430, 6-{[(3R)-1-(Cyclopropylcarbonyl)pyrrolidin-3-yl]methyl}-5-[5-(1-methyl-1H-indazol-5-yl)thiophen-2-yl]-4,6-diazaspiro[2.4]hept-4-en-7-one], the inhibition at 10 µM was 52%. Also, the “Human FASN pIC50” value (hFASN enzyme, full length, "~" means standard error of the pIC50 is larger than 0.5) is on record as 5.05.

Turning to `Cc1cc2cc(-c3ccc(C4=NC5(CC5)C(=O)N4CC4CN(C(=O)C5CC5)C4)cc3F)ccc2s1` [compound 433, 6-{[1-(Cyclopropylcarbonyl)azetidin-3-yl]methyl}-5-[3-fluoro-4-(2-methyl-1-benzothiophen-5-yl)phenyl]-4,6-diazaspiro[2.4]hept-4-en-7-one], the inhibition at 10 µM is 72% and the IC50 was 1820 nM.

As for `Cc1sc2ccc(-c3ccc(C4=NC5(CC5)C(=O)N4CC4CN(C(=O)C5CC5)C4)cc3F)cc2c1C` [compound 434, 6-{[1-(Cyclopropylcarbonyl)azetidin-3-yl]methyl}-5-[4-(2,3-dimethyl-1-benzothiophen-5-yl)-3-fluorophenyl]-4,6-diazaspiro[2.4]hept-4-en-7-one], the inhibition at 10 µM is 73% and the IC50 is 2040 nM.

Consider `Cc1cc(C2=NC3(CC3)C(=O)N2CC2CN(C(=O)C3CC3)C2)ccc1-c1ccc2c(cnn2C)c1` [compound 436, 6-{[1-(Cyclopropylcarbonyl)azetidin-3-yl]methyl}-5-[3-methyl-4-(1-methyl-1H-indazol-5-yl)phenyl]-4,6-diazaspiro[2.4]hept-4-en-7-one], for which the inhibition at 10 µM amounted to 43% and the IC50 is around 10000 nM.

By inhibition is commonly meant the change of the read-out against control, counted positive when it falls.
